Results taken from patent US9833497B2, “Human originated EGF domain proteins and use of the same” (CHENGDU SOURCEBIO LIMITED-LIABILITY COMPANY, priority 2013, dated 2017).

Experiments:
Format in all cases: cell-based
[1] = test system: E. coli DH5α; test: Antibacterial activity: MIC and growth curve against E. coli DH5α in 96-well plate; conditions: minimal inhibitory concentration against E. coli DH5α; 96-well plate, 5×10^5 CFU/mL, 37° C., judged after 8 h
Procedure, shortened: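 MIC taken as lowest protein level with no bacterial growth, tracked by A600 every 30 min during 37 °C, 175 rpm culture. Two-fold protein series 50-12.5 μg/mL final, triplicate wells, against 5×10^5 CFU/mL of LB-washed mid-log cells.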

[2] = test system: E. coli BL21; test: MIC against Gram-negative bacteria: E. coli BL21; conditions: 5×10^5 CFU/mL; for MIC E. coli BL21 / MIC (μg/mL) E. coli BL21: 10 h cultivation at 37° C.; for MIC E. coli BL21: two-fold serial dilution; for MIC against E. coli BL21: 96-well plate, 37° C., 10 h
Procedure, shortened: (§1)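 Bacteria grown in LB at 37° C with shaking to McFarland 0.5, pelleted and resuspended in fresh LB, then seeded at 5×10^5 CFU/mL per well. Purified recombinant human EGF domain proteins were two-fold serially diluted in triplicate and plates shaken at 37° C, 175 rpm. MIC is the lowest protein concentration with no bacterial growth.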

[3] = test system: Pseudomonas aeruginosa; test: MIC against Gram-negative bacteria: Pseudomonas aeruginosa; conditions: 5×10^5 CFU/mL; for MIC P. aeruginosa / MIC (μg/mL) P. aeruginosa: 10 h cultivation at 37° C.; for MIC P. aeruginosa: two-fold serial dilution; for MIC against P. aeruginosa: Pseudomonas aeruginosa, 96-well plate, 37° C., 10 h
Procedure, shortened: as §1

[4] = test system: Klebsiella pneumonia; test: MIC against Gram-negative bacteria: Klebsiella pneumonia; conditions: 5×10^5 CFU/mL; for MIC K. pneumonia / MIC (μg/mL) K. pneumonia: 10 h cultivation at 37° C.; for MIC K. pneumonia: two-fold serial dilution; for MIC against K. pneumonia: Klebsiella pneumonia, 96-well plate, 37° C., 10 h
Procedure, shortened: as §1

[5] = test system: Enterobacter cloacae; test: MIC against Gram-negative bacteria: Enterobacter cloacae; conditions: 5×10^5 CFU/mL; for MIC E. cloacae / MIC (μg/mL) E. cloacae: 10 h cultivation at 37° C.; for MIC E. cloacae: two-fold serial dilution; for MIC against E. cloacae: Enterobacter cloacae, 96-well plate, 37° C., 10 h
Procedure, shortened: as §1

[6] = test system: Aeromonas hydrophila; test: MIC against Gram-negative bacteria: Aeromonas hydrophila; conditions: 5×10^5 CFU/mL; for MIC A. hydrophila / MIC (μg/mL) A. hydrophila: 10 h cultivation at 37° C.; for MIC A. hydrophila: two-fold serial dilution; for MIC against A. hydrophila: Aeromonas hydrophila, 96-well plate, 37° C., 10 h
Procedure, shortened: as §1

[7] = test system: Citrobacter diversus; test: MIC against Gram-negative bacteria: Citrobacter diversus; conditions: 5×10^5 CFU/mL; for MIC C. diversus / MIC (μg/mL) C. diversus: 10 h cultivation at 37° C.; for MIC C. diversus: two-fold serial dilution; for MIC against C. diversus: Citrobacter diversus, 96-well plate, 37° C., 10 h
Procedure, shortened: as §1

[8] = test system: Moraxella catarrhalis; test: MIC against Gram-negative bacteria: Moraxella catarrhalis; conditions: 5×10^5 CFU/mL; for MIC M. catarrhalis / MIC (μg/mL) M. catarrhalis: 10 h cultivation at 37° C.; for MIC M. catarrhalis: two-fold serial dilution; for MIC against M. catarrhalis: Moraxella catarrhalis, 96-well plate, 37° C., 10 h
Procedure, shortened: as §1

[9] = test system: Proteus mirabilis; test: MIC against Gram-negative bacteria: Proteus mirabilis; conditions: 5×10^5 CFU/mL; for MIC P. mirabilis / MIC (μg/mL) P. mirabilis: 10 h cultivation at 37° C.; for MIC P. mirabilis: two-fold serial dilution; for MIC against P. mirabilis: Proteus mirabilis, 96-well plate, 37° C., 10 h
Procedure, shortened: as §1

[10] = test system: Proteus vulgaris; test: MIC against Gram-negative bacteria: Proteus vulgaris; conditions: 5×10^5 CFU/mL; for MIC P. vulgaris / MIC (μg/mL) P. vulgaris: 10 h cultivation at 37° C.; for MIC P. vulgaris: two-fold serial dilution; for MIC against P. vulgaris: Proteus vulgaris, 96-well plate, 37° C., 10 h
Procedure, shortened: as §1

[11] = test system: Serratia marcescens; test: MIC against Gram-negative bacteria: Serratia marcescens; conditions: 5×10^5 CFU/mL; for MIC S. marcescens / MIC (μg/mL) S. marcescens: 10 h cultivation at 37° C.; for MIC S. marcescens: two-fold serial dilution; for MIC against S. marcescens: Serratia marcescens, 96-well plate, 37° C., 10 h
Procedure, shortened: as §1

For “PRT1044 (FGQDCAETCDCAPDARCFPANGACLCEHGFTGDRCT; listed as Homo sapiens)”, the MIC [1] was 100 µg/mL, the “MIC E. coli BL21” value [2] was 50 µg/mL and the “MIC P. aeruginosa” value [3] was 50 µg/mL. For the same substance, the “MIC K. pneumonia” value [4] was 12.5 µg/mL, the “MIC E. cloacae” value [5] was 50 µg/mL and the “MIC A. hydrophila” value [6] was 50 µg/mL. For the same substance, the “MIC C. diversus” value [7] was 50 µg/mL, the “MIC M. catarrhalis” value [8] was 25 µg/mL and the “MIC P. mirabilis” value [9] was 12.5 µg/mL. The “MIC P. vulgaris” value [10] was 25 µg/mL and the “MIC S. marcescens” value [11] was 50 µg/mL.

With “PRT195 (MGYNCNATTKCKGKGICNNFGNCQCFPGHRPPDCK; listed as Homo sapiens)” the MIC [1] was 25 µg/mL, the “MIC (μg/mL) E. coli BL21” value [2] was 12.5 µg/mL and the “MIC (μg/mL) P. aeruginosa” value [3] was 50 µg/mL. The “MIC (μg/mL) K. pneumonia” value [4] was 50 µg/mL, the “MIC (μg/mL) E. cloacae” value [5] was 12.5 µg/mL and the “MIC (μg/mL) A. hydrophila” value [6] was 50 µg/mL. The “MIC (μg/mL) C. diversus” value [7] was 12.5 µg/mL, the “MIC (μg/mL) M. catarrhalis” value [8] was 25 µg/mL and the “MIC (μg/mL) P. mirabilis” value [9] was 50 µg/mL. The “MIC (μg/mL) P. vulgaris” value [10] was 25 µg/mL and the “MIC (μg/mL) S. marcescens” value [11] was 12.5 µg/mL.

For “PRT1312 (LQPVCTPPCAPEAVCRAGNSCECSLGYEGDGRVCT; listed as Homo sapiens)”, the MIC [1] was 50 µg/mL, the “MIC against E. coli BL21” value [2] was 12.5 µg/mL and the “MIC against P. aeruginosa” value [3] was 50 µg/mL. The “MIC against K. pneumonia” value [4] was 12.5 µg/mL, the “MIC against E. cloacae” value [5] was 50 µg/mL and the “MIC against A. hydrophila” value [6] was 12.5 µg/mL. For the same substance, the “MIC against C. diversus” value [7] was 50 µg/mL, the “MIC against M. catarrhalis” value [8] was 12.5 µg/mL and the “MIC against P. mirabilis” value [9] was 50 µg/mL. For the same substance, the “MIC against P. vulgaris” value [10] was 12.5 µg/mL and the “MIC against S. marcescens” value [11] was 50 µg/mL.

In the case of “PRT1109 (EPRGCATQPCHHGALCVPQGPDPTGFRCYCVPGFQGPRCE; listed as Homo sapiens)”, the MIC [1] is reported as 12.5 µg/mL, the “MIC E. coli BL21” value [2] is reported as 25 µg/mL and the “MIC P. aeruginosa” value [3] is reported as 12.5 µg/mL. The “MIC K. pneumonia” value [4] was 25 µg/mL, the “MIC E. cloacae” value [5] was 12.5 µg/mL and the “MIC A. hydrophila” value [6] was 50 µg/mL. The “MIC C. diversus” value [7] was 12.5 µg/mL, the “MIC M. catarrhalis” value [8] was 25 µg/mL and the “MIC P. mirabilis” value [9] was 50 µg/mL. For the same substance, the “MIC P. vulgaris” value [10] was 25 µg/mL and the “MIC S. marcescens” value [11] was 12.5 µg/mL.

For “PRT839 (DVDECRLGLARCHPRATCLNTPLSYECHCQRGYQGDGISHCN; listed as Homo sapiens)”, the MIC [1] was 12.5 µg/mL, the “MIC (μg/mL) E. coli BL21” value [2] was 25 µg/mL and the “MIC (μg/mL) P. aeruginosa” value [3] was 12.5 µg/mL. For the same substance, the “MIC (μg/mL) K. pneumonia” value [4] was 12.5 µg/mL, the “MIC (μg/mL) E. cloacae” value [5] was 12.5 µg/mL and the “MIC (μg/mL) A. hydrophila” value [6] was 12.5 µg/mL. The “MIC (μg/mL) C. diversus” value [7] was 25 µg/mL, the “MIC (μg/mL) M. catarrhalis” value [8] was 50 µg/mL and the “MIC (μg/mL) P. mirabilis” value [9] was 25 µg/mL. The “MIC (μg/mL) P. vulgaris” value [10] was 12.5 µg/mL and the “MIC (μg/mL) S. marcescens” value [11] was 50 µg/mL.

For “PRT1240 (WGPDCRESCPCHPHGQCEPATGACQCQADRWGARCE; listed as Homo sapiens)”, the MIC [1] was 12.5 µg/mL, the “MIC against E. coli BL21” value [2] was 50 µg/mL and the “MIC against P. aeruginosa” value [3] was 12.5 µg/mL. For the same substance, the “MIC against K. pneumonia” value [4] was 12.5 µg/mL, the “MIC against E. cloacae” value [5] was 25 µg/mL and the “MIC against A. hydrophila” value [6] was 12.5 µg/mL. The “MIC against C. diversus” value [7] was 25 µg/mL, the “MIC against M. catarrhalis” value [8] was 50 µg/mL and the “MIC against P. mirabilis” value [9] was 25 µg/mL. For the same substance, the “MIC against P. vulgaris” value [10] was 12.5 µg/mL and the “MIC against S. marcescens” value [11] was 25 µg/mL.

For “PRT260 (CRAGNGGCHGLATCRAVGGGQRVCTCPPGFGGDGFSC; listed as Homo sapiens)”, the MIC [1] was 12.5 µg/mL, the “MIC (μg/mL) E. coli BL21” value [2] was 25 µg/mL and the “MIC (μg/mL) P. aeruginosa” value [3] was 50 µg/mL. The “MIC (μg/mL) K. pneumonia” value [4] was 25 µg/mL, the “MIC (μg/mL) E. cloacae” value [5] was 12.5 µg/mL and the “MIC (μg/mL) A. hydrophila” value [6] was 25 µg/mL. The “MIC (μg/mL) C. diversus” value [7] was 50 µg/mL, the “MIC (μg/mL) M. catarrhalis” value [8] was 25 µg/mL and the “MIC (μg/mL) P. mirabilis” value [9] was 12.5 µg/mL. The “MIC (μg/mL) P. vulgaris” value [10] was 12.5 µg/mL and the “MIC (μg/mL) S. marcescens” value [11] was 12.5 µg/mL.
